Test results: PubChem BioAssay (NCI)
Where “and” joins values, the source holds several entries; their conditions need not be identical. Identical values can stand only once.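 Compound exposure: 48 hours, 5 concentrations, 96-well plates. The concentration for 50% growth inhibition is given as GI50. TGI: concentration producing complete growth inhibition.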

Key:
Assay in all cases: NCI tumour cell line growth inhibition, 48 h
RXF 393 renal = test system: RXF 393 renal
MOLT-4 leukemia = test system: MOLT-4 leukemia
K-562 leukemia = test system: K-562 leukemia
SNB-75 CNS = test system: SNB-75 CNS
SW-620 colon = test system: SW-620 colon
HCT-15 colon = test system: HCT-15 colon
COLO 205 colon = test system: COLO 205 colon
PC-3 prostate = test system: PC-3 prostate
SF-539 CNS = test system: SF-539 CNS
IGROV1 ovarian = test system: IGROV1 ovarian
HCT-116 colon = test system: HCT-116 colon
T-47D breast = test system: T-47D breast
NCI/ADR-RES ovarian = test system: NCI/ADR-RES ovarian
UACC-62 melanoma = test system: UACC-62 melanoma
ACHN renal = test system: ACHN renal
MDA-N = test system: MDA-N
SF-268 CNS = test system: SF-268 CNS
HS 578T breast = test system: HS 578T breast

SMILES	TGI (RXF 393 renal)	TGI (MOLT-4 leukemia)	TGI (K-562 leukemia)	TGI (SNB-75 CNS) [µM]	TGI (SW-620 colon)	TGI (HCT-15 colon)	TGI (COLO 205 colon) [µM]	TGI (PC-3 prostate) [µM]	TGI (SF-539 CNS) [µM]	TGI (IGROV1 ovarian) [µM]	TGI (HCT-116 colon)	TGI (T-47D breast) [µM]	TGI (NCI/ADR-RES ovarian) [µM]	TGI (UACC-62 melanoma) [µM]	TGI (ACHN renal) [µM]	TGI (MDA-N) [µM]	TGI (SF-268 CNS) [µM]	TGI (HS 578T breast) [µM]	GI50 (HCT-116 colon) [µM]	GI50 (UACC-62 melanoma) [µM]
COP1(=O)NCc2ncccc2O1 (centres undefined)	> 100 µM	> 100 µM	> 100 µM	> 100	> 100 µM	> 100 µM	> 100	> 100	> 100	> 100	> 100 µM	> 100	> 100	> 100	> 100	> 100	–	–	–	–
C=C(C)[C@@]1(O)CCC[C@H]1NC(=O)OC(C)(C)C	> 100 µM	–	–	> 100	> 100 µM	> 100 µM	> 100	> 100	–	> 100	> 100 µM	> 100	> 100	–	> 100	> 100	> 100	–	–	–
CC(=O)Nc1cc2c(cc1O)CC[C@@H]1[C@@H]2CC[C@]2(C)[C@@H](O)CC[C@@H]12	> 100 µM	> 100 µM	> 100 µM	–	71.9 µM	54.5 µM	62.2	> 100	> 100	> 100	> 100 µM	95.8	55.9	> 100	> 100	52.1	68.8	> 100	39.8	31.2
CC(=O)OCC12C(OC(C)=O)C[C@@H](C)C3(CC(c4ccoc4)OC3=O)C1CCC(O)C21CO1 (some centres undefined)	> 100 µM	> 100 µM	> 100 µM	> 100	–	> 100 µM	> 100	> 100	> 100	> 100	> 100 µM	–	> 100	> 100	> 100	> 100	> 100	> 100	–	–
Cc1cc2c(cc1C)[n+](=O)c(N1CCN(c3ccc([N+](=O)[O-])cc3)CC1)c(C#N)n2[O-]	29.9 µM	–	–	21.7	> 100 µM	> 100 µM	> 100	> 100	–	> 100	> 100 µM	63.7	> 100	59.9	50.8	> 100	> 100	> 100	–	–
COC(=NCCC1=CCCCC1)OC	> 100 µM	> 100 µM	> 100 µM	> 100	> 100 µM	> 100 µM	31.2	> 100	–	> 100	> 100 µM	> 100	> 100	> 100	> 100	> 100	> 100	> 100	–	–
O=C1NC(=O)C(C(c2ccc(Cl)cc2)C2C(=O)NC(=O)NC2=O)C(=O)N1	> 100 µM	> 100 µM	> 100 µM	–	> 100 µM	> 100 µM	> 100	> 100	–	> 100	> 100 µM	> 100	> 100	> 100	> 100	> 100	–	> 100	–	–
CC(C)N=C(NC#N)NS(=O)(=O)c1cnccc1Nc1ccc(Cl)cc1	> 100 µM	> 100 µM	> 100 µM	> 100	> 100 µM	> 100 µM	> 100	> 100	–	> 100	> 100 µM	> 100	> 100	> 100	> 100	> 100	> 100	> 100	–	–
CC(C)[Si](OC1=C(C(=O)N(C)c2ccccc2Cl)CCC1)(C(C)C)C(C)C	35.4 µM	> 100 µM	–	29.1	46.9 µM	30.6 µM	34.3	–	39.5	33	37 µM	47.1	30.4	–	36.3	38.8	33.4	–	–	–
O=C(/C=C(\Nc1ccccc1O)c1ccccc1)C(=O)NC12CC3CC(CC(C3)C1)C2	> 10 µM	> 10 µM	> 10 µM	> 10	> 10 µM	> 10 µM	> 10	> 10	> 10	> 10	–	> 10	> 10	–	> 10	> 10	> 10	> 10	–	–
COc1ccc(-n2c(C)nc3ccc(NC4OCC(O)C(O)C4O)cc3c2=O)cc1 (centres undefined)	81.9 µM and 87.8 µM	84.7 µM and > 100 µM	87.2 µM and 95.1 µM	> 100	> 100 µM and 72.6 µM	65.8 µM and 80.8 µM	> 100	> 100	–	> 100	40.4 µM and 39.3 µM	> 100	> 100	> 100	> 100	> 100	> 100	> 100	–	–
O=C(CCc1ccc(O)c(O)c1)NCCc1cc(OCc2ccccc2)cc(OCc2ccccc2)c1	36.8 µM	–	> 100 µM	22.2	76.1 µM	11 µM	14.6	29.8	30.1	22.5	31.6 µM	58.2	64	47.4	19.3	29.2	42.3	40.2	–	–
COc1ccc(C2=NN(c3ccccc3)C(c3cc4cc(Br)ccc4nc3Cl)C2)cc1 (centres undefined)	> 25 µM	> 25 µM	> 25 µM	> 25	> 25 µM	> 25 µM	> 25	> 25	> 25	> 25	> 25 µM	> 25	> 25	–	–	> 25	> 25	> 25	–	–
CN1CCN(C(=S)N(C(=O)c2ccco2)c2ccccc2)CC1	> 100 µM	> 100 µM	> 100 µM	> 100	> 100 µM	> 100 µM	> 100	–	–	> 100	–	> 100	–	> 100	> 100	> 100	> 100	> 100	–	–
O=[N+]([O-])c1cccc2nc3ccccc3c(NCCCN3CCOCC3)c12	0.0294 µM	24.2 µM	–	0.114	0.686 µM	0.0491 µM	0.0303	0.0684	0.138	0.084	< 0.0298 µM	0.241	0.341	0.0326	0.0506	0.0149	0.744	> 100	–	–
O=C1c2ccccc2C(=O)N1CCCCCCNOCCCN1C(=O)c2ccccc2C1=O	> 100 µM	38.7 µM	98.2 µM	> 100	> 100 µM	> 100 µM	> 100	> 100	–	> 100	> 100 µM	65	70	50.3	> 100	> 100	> 100	> 100	–	–
Cc1c(C(=O)O)c2cc3ccccc3cc2c(=O)n1C	> 10 µM	–	–	> 10	> 10 µM	> 10 µM	–	> 10	> 10	> 10	–	> 10	> 10	> 10	> 10	> 10	> 10	> 10	–	–
CCCCCC(=O)OCC1(CO)C/C(=C\CC(C(C)C)C(C)C)C(=O)O1 (centres undefined)	> 100 µM	61.8 µM	77.5 µM	> 100	64.4 µM	> 100 µM	53.5	> 100	–	> 100	> 100 µM	> 100	> 100	> 100	> 100	> 100	> 100	> 100	–	–
COC(=O)C(Cc1ccccc1I)C1=CCC2(CC1)OCCO2 (centres undefined)	42.5 µM	56.8 µM	> 100 µM	57.4	> 100 µM	> 100 µM	63	93.8	> 100	> 100	–	39.7	55.8	59.3	> 100	67.4	> 100	77.5	–	–
COc1ccc(N2C(=O)/C(=C\c3cccc(Oc4ccccc4)c3)S(=O)(=O)C2c2ccccc2)cc1 (centres undefined)	> 100 µM	22.5 µM	> 100 µM	–	> 100 µM	> 100 µM	> 100	> 100	–	–	> 100 µM	> 100	46.2	> 100	> 100	87.6	–	–	–	–
CCOC(=O)c1cccc([N+](=O)[O-])c1N	–	> 100 µM	> 100 µM	> 100	> 100 µM	> 100 µM	> 100	> 100	> 100	> 100	> 100 µM	> 100	> 100	> 100	> 100	> 100	–	> 100	–	–
O=C(N/N=C1/C(=O)c2c3ccccc3cc3cccc1c23)c1cccc(Cl)c1	> 100 µM	> 100 µM	> 100 µM	> 100	> 100 µM	> 100 µM	> 100	> 100	> 100	> 100	> 100 µM	–	> 100	> 100	> 100	> 100	–	67.2	–	–
C#CCOC(=O)C(N)CSSCC(N)C(=O)O (centres undefined)	> 100 µM	> 100 µM	–	> 100	> 100 µM	> 100 µM	> 100	> 100	> 100	> 100	> 100 µM	> 100	> 100	> 100	> 100	> 100	> 100	> 100	–	–
C=C1CC(Cn2cc(C)c(=O)[nH]c2=O)(c2ccc(-c3ccccc3)cc2)OC1=O (centres undefined)	–	2.8 µM	2.3 µM	21.8	1.91 µM	3.72 µM	2.89	5.31	8.38	3.74	2.03 µM	5.51	13.8	3.77	6.65	2.75	5.62	> 21.2	–	–
Nc1nc(NNc2ccc(Cl)c(Cl)c2)cc(=O)[nH]1	67.5 µM	90.3 µM	54.7 µM	–	61.1 µM	58.7 µM	61.1	> 100	> 100	> 100	> 100 µM	–	> 100	–	> 100	> 100	> 100	> 100	–	–
Cc1ccc(CS(=O)(=O)C/N=c2\sc3ccccc3nc2/C=C(\O)c2ccc(Cl)cc2)cc1	–	> 10 µM	> 10 µM	> 10	> 10 µM	> 10 µM	> 10	> 10	> 10	> 10	> 10 µM	> 10	> 10	> 10	> 10	> 10	> 10	> 10	–	–
Cc1ccc2c(=O)c(-c3nnc(N)s3)c[nH]c2n1	> 100 µM	> 100 µM	> 100 µM	–	> 100 µM	> 100 µM	> 100	> 100	–	> 100	> 100 µM	> 100	> 100	> 100	> 100	> 100	> 100	> 100	–	–
O=P1(Oc2ccc(Cl)cc2)OCCS1 (centres undefined)	> 100 µM	–	–	> 100	> 100 µM	> 100 µM	> 100	> 100	> 100	> 100	> 100 µM	> 100	> 100	> 100	> 100	> 100	> 100	> 100	–	–
COc1ccc(N[C@H](CS(=O)c2ccc(C)cc2)C(F)(F)C(F)(F)F)cc1 (some centres undefined)	32.4 µM	> 100 µM	> 100 µM	75.6	> 100 µM	> 100 µM	> 100	–	> 100	> 100	> 100 µM	> 100	> 100	> 100	> 100	> 100	> 100	> 100	–	–
